Source: US4138480A, “Novel anthracycline glycosides and methods of preparing the same” (priority 1976, dated 1979)
Entries after “also recorded” stand apart in the source; their conditions may differ.

Key:
Na-K ATPase = Na-K ATPase (Oryctolagus cuniculus, UniProt Q9N0Z6); test: 50% inhibition of Na-K ATPase by doxorubicin analogs; assay type: biochemical; settings: read-out: Concentration for 50% Inhibition NaK ATPase
From the text: (§1) From these facts, it can be deduced, on the basis of the results of Table I as well, that the metallic derivative of doxorubicin formed with the metal proportion 2:1 or higher, lacks the inhibiting effect on the Na-K ATPase, that is to say, they would lack cardiotoxicity. […] The remaining chelates described herein may be expected to behave similarly. […] The compounds have the structure depicted in Formula I wherein R is as in Formula II and R1 is as given.

[1] = biological target: T1, ATPase sodium-potassium dependent enzyme (Na-K ATPase) (Oryctolagus cuniculus, UniProt Q9N0Z6); test: Activity of the ATPase Na-K dependent enzyme isolated from rabbit heart; assay type: biochemical
T1 construct: isolated from rabbit heart; from tissue; host or cells: rabbit heart
From the text: as §1

[2] = system: leukemia 1210 mouse cells; test: Inhibition of DNA synthesis of leukemia 1210 mouse cells; assay type: cell-based; settings: read-out: Percent of Inhibition of DNA Synthesis
[3] = Toxicity: survivors after one intraperitoneal injection in mice; settings: mouse, in vivo, ip
Experimental: The drugs were administered by only one intraperitoneal injection to groups of ten mice and the numbers of survivors were recorded after eight days.

[4] = system: leukemia P-338 of the mouse; test: Therapeutic activity in leukemia P-338 of the mouse; assay type: in vivo; settings: 0 mg/kg 11 days
leucocytes = test: Hematological toxicity, leucocyte count; assay type: in vivo; settings: day 7, day 0 4.700
[5] = Passage of hematoencephalic and intestinal barriers; settings: in vivo
[6] = cumulative doses; cited from earlier work
rabbit electrocardiogram = test: Electrocardiographic alterations after intravenous injection to the rabbit
[7] = system: spleen weight and immunocompetent cells; test: Comparative testing of immunosuppressive properties (spleen weight, immunocompetent cells)
[8] = read-out: Percent of the ATPase Na-K Dependent Activity

COC(=O)[C@]1(O)Cc2c(O)c3c(c(O)c2[C@@H](O[C@H]2C[C@H](N)[C@H](O)[C@H](C)O2)C1)C(=O)c1c(OC)cccc1C3=O [NSC-237638]
IC50 (Na-K ATPase): 0.001 µM

COc1cccc2c1C(=O)c1c(O)c3c(c(O)c1C2=O)C[C@@](O)(C(C)=NNC(=O)c1ccc(O)cc1)C[C@@H]3O[C@H]1C[C@H](N)[C@H](O)[C@H](C)O1 [NSC-221264]
IC50 (Na-K ATPase): 0.0001 µM

COc1cccc2c1C(=O)c1c(O)c3c(c(O)c1C2=O)C[C@@](O)(C(C)=NNC(=O)c1ccc([N+](=O)[O-])cc1)C[C@@H]3O[C@H]1C[C@H](N)[C@H](O)[C@H](C)O1 [NSC-221265]
IC50 (Na-K ATPase): 10 µM

CCCOc1ccc(C(=O)NN=C(C)[C@]2(O)Cc3c(O)c4c(c(O)c3[C@@H](O[C@H]3C[C@H](N)[C@H](O)[C@H](C)O3)C2)C(=O)c2c(OC)cccc2C4=O)cc1 [NSC-234740]
IC50 (Na-K ATPase): 0.01 µM

COc1cccc2c1C(=O)c1c(O)c3c(c(O)c1C2=O)C[C@@](O)(C(C)=NNC(=O)c1ccc(N(C)C)cc1)C[C@@H]3O[C@H]1C[C@H](N)[C@H](O)[C@H](C)O1 [NSC-227013]
IC50 (Na-K ATPase): 0.0001 µM

CCCCC(=O)NN=C(C)[C@]1(O)Cc2c(O)c3c(c(O)c2[C@@H](O[C@H]2C[C@H](N)[C@H](O)[C@H](C)O2)C1)C(=O)c1c(OC)cccc1C3=O [NSC-211391]
IC50 (Na-K ATPase): 1 µM

COc1cccc2c1C(=O)c1c(O)c3c(c(O)c1C2=O)C[C@@](O)(C(=O)CO)C[C@@H]3O[C@H]1C[C@H](N)[C@H](O)[C@H](C)O1 [Doxorubicin]
effect of calcium on ATPase inhibition [1]: counteracted by calcium
inhibition of Na-K ATPase, in words [1]: strong inhibitor; also recorded: potent inhibitor
activity at 10 pM [1, 8]: 40%
activity at 0.001 µM [1, 8]: 25%
activity at 0.1 µM [1, 8]: 25%
activity at 10 µM [1, 8]: 25%
activity at 100 fM [1, 8]: 65%
inhibition at 3 µM ([2]; 3 μM): 60%
inhibition at 5 µM ([2]; 5 μM): 68%
inhibition at 7.5 µM ([2]; 7.5 μM): 75%
inhibition at 10 µM ([2]; 10 μM): 90%
survival at 192 h ([3]; 10 mg/kg): 100%
survival at 192 h ([3]; 20 mg/kg): 60%
survival at 192 h ([3]; 30 mg/kg): 0%
survival at 192 h ([3]; 40 mg/kg): 0%
survival at 192 h ([3]; 50 mg/kg): 0%
survival at 192 h ([3]; 60 mg/kg): 0%
Days of Mean Survival of Leukemic Mice ([4]; 4 mg/kg i.p.): 50 days
Days of Mean Survival of Leukemic Mice ([4]; 8 mg/kg i.p.): 48 days
Days of Mean Survival of Leukemic Mice ([4]; 12 mg/kg i.p.): 42 days
Days of Mean Survival of Leukemic Mice ([4]; 24 mg/kg i.p.): 6 days
Days of Mean Survival of Leukemic Mice ([4]; 36 mg/kg i.p.): 4 days
Leucocyte Count/mm^3 (leucocytes; 10 mg/kg): 3.300 /mm^3
Leucocyte Count/mm^3 (leucocytes; 20 mg/kg): 2.400 /mm^3
passing both hematoencephalic and intestinal barriers [5]: does not to an effective degree
cumulative dose attended by severe, oftentimes lethal cardiotoxicity [6]: > 500 mg. per square meter
alterations of the electrocardiogram, in words (rabbit electrocardiogram): very intense
immunosuppression (spleen weight and immunocompetent cells) [7]: depressed spleen weight and immunocompetent cells to a significant extent

COc1cccc2c1C(=O)c1c(O)c3c(c(O)c1C2=O)C[C@@](O)(/C(CO)=N/NC(=O)c1ccc(Cl)c(Cl)c1)C[C@@H]3OC1CC(N)C(O)C(C)O1 (stereo partly shown) [NSC-237672]
IC50 (Na-K ATPase): 10 µM

COc1ccc(C(=O)NN=C(C)[C@]2(O)Cc3c(O)c4c(c(O)c3[C@@H](O[C@H]3C[C@H](N)[C@H](O)[C@H](C)O3)C2)C(=O)c2c(OC)cccc2C4=O)cc1 [NSC-219976]
IC50 (Na-K ATPase): 0.001 µM

CCc1ccc(C(=O)N/N=C(\C)[C@]2(O)Cc3c(O)c4c(c(O)c3[C@H](O[C@H]3C[C@H](N)[C@H](O)[C@H](C)O3)C2)C(=O)c2c(OC)cccc2C4=O)cc1 [NSC-233854]
IC50 (Na-K ATPase): 0.1 µM

COc1cccc2c1C(=O)c1c(O)c3c(c(O)c1C2=O)CC(O)(/C(C)=N/NC(=O)c1ccc(-c2ccccc2)cc1)CC3OC1CC(N)C(O)C(C)O1 (stereo not shown) [NSC-236672]
IC50 (Na-K ATPase): 0.001 µM

COc1cccc2c1C(=O)c1c(O)c3c(c(O)c1C2=O)C[C@@](O)(/C(C)=N/NC(=O)c1ccc(Cl)c(Cl)c1)C[C@@H]3OC1CC(N)C(O)C(C)O1 (stereo partly shown) [NSC-221266]
IC50 (Na-K ATPase): 1 µM

COc1cccc2c1C(=O)c1c(O)c3c(c(O)c1C2=O)C[C@@](O)(C(CO)=NNC(=O)c1ccccc1)C[C@@H]3O[C@H]1C[C@H](N)[C@H](O)[C@H](C)O1 [NSC-216071]
IC50 (Na-K ATPase): 10 µM
